Experimental data published in publication PMC12040969, “Design, synthesis, in silico studies, and apoptotic antiproliferative activity of novel thiazole-2-acetamide derivatives as tubulin polymerization inhibitors” (Frontiers in Chemistry, 2025).

Key:
[1] = Cell viability assay (MTT), normal cells; type: cell-based; settings: human, MCF-10A normal mammary gland epithelial cells, four-day incubation
prostatic - PC-3 = assay: Antiproliferative assay (MTT) PC-3; settings: for IC50: read-out: Antiproliferative activity IC50 ± SEM (µM) PC-3, PC-3, MTT
breast - MCF-7 = assay: Antiproliferative assay (MTT) MCF-7; settings: for IC50: read-out: Antiproliferative activity IC50 ± SEM (µM) MCF-7, MCF-7, MTT
colon - HCT-116 = assay: Antiproliferative assay (MTT) HCT-116; settings: for IC50: read-out: Antiproliferative activity IC50 ± SEM (µM) HCT-116, HCT-116, MTT
- MDAMB-231 = assay: Antiproliferative assay (MTT) MDAMB-231
pancreatic - MDAMB-231 = assay: Antiproliferative assay (MTT) MDAMB-231; settings: read-out: Antiproliferative activity IC50 ± SEM (µM) MDAMB-231; MDAMB-231, MTT
[2] = system: four human cancer cell lines (HCT-116, PC-3, MCF-7, MDAMB-231); assay: Antiproliferative assay, mean of four cell lines (GI50); settings: for Reduced potency compared to doxorubicin (GI50) / Reduced potency compared to sorafenib (GI50): GI50 ratio; for IC50: Homo sapiens, read-out: GI50 (average IC50)
tubulin = assay: Tubulin polymerization inhibition assay (Cytoskeleton kit);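 as to all read-outs here: Cell-free tubulin polymerization read by fluorescent reporter enhancement over a 30 min reaction, with the compound-free kit control taken as 100% activity and inhibition relative to it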; settings: for Tub. enzyme inhibition assay %inhibition / Tub %inh: 30 min; for Tub. enzyme inhibition assay %inhibition: codes 522-537 run; for Tub. enzyme inhibition assay K. Activity: control = 120, codes 522-537 run; for IC50: read-out: Tubulin inhibition IC50 ± SEM, triplicate for each tested concentration; for Tub %inh: YB-EGY run; for Tub K.Activity: EC = 120, YB-EGY run

With `Cc1ccc(-c2csc(NC(=O)CSc3nc(C)c(C(=O)/C=C/c4ccc(F)cc4)s3)n2)cc1` [Compound 10m, (E)-2-((5-(3-(4-fluorophenyl)acryloyl)-4-methylthiazol-2-yl)thio)-N-(4-(p-tolyl)thiazol-2-yl)acetamide] the viability at 96 h, 50 µM [1] was 87%, the “Average of Relative viability of cells (%)” value (prostatic - PC-3; PC-3, 1.56 µM) was 100% and the “Average of Relative viability of cells (%)” value (prostatic - PC-3; PC-3, 3.125 µM) was 98.5%. For the same molecule, the “Average of Relative viability of cells (%)” value (prostatic - PC-3; PC-3, 6.25 µM) was 84.1%, the “Average of Relative viability of cells (%)” value (prostatic - PC-3; PC-3, 12.5 µM) was 70.2% and the “Average of Relative viability of cells (%)” value (prostatic - PC-3; PC-3, 25 µM) was 57.4%. The “Average of Relative viability of cells (%)” value (prostatic - PC-3; PC-3, 50 µM) was 46.7%, the “Average of Relative viability of cells (%)” value (prostatic - PC-3; PC-3, 100 µM) was 36.8% and the IC50 (prostatic - PC-3) was 43 ± 2.5 µM. For the same molecule, the “Average of Relative viability of cells (%)” value (breast - MCF-7; MCF-7, 1.56 µM) was 100%, the “Average of Relative viability of cells (%)” value (breast - MCF-7; MCF-7, 3.125 µM) was 91.6% and the “Average of Relative viability of cells (%)” value (breast - MCF-7; MCF-7, 6.25 µM) was 72.7%. The “Average of Relative viability of cells (%)” value (breast - MCF-7; MCF-7, 12.5 µM) was 53.5%, the “Average of Relative viability of cells (%)” value (breast - MCF-7; MCF-7, 25 µM) was 37.2% and the “Average of Relative viability of cells (%)” value (breast - MCF-7; MCF-7, 50 µM) was 28.4%. For the same molecule, the “Average of Relative viability of cells (%)” value (breast - MCF-7; MCF-7, 100 µM) was 22.3%, the IC50 (breast - MCF-7) was 18 ± 1.4 µM and the “Average of Relative viability of cells (%)” value (colon - HCT-116; HCT-116, 1.56 µM) was 100%. For the same molecule, the “Average of Relative viability of cells (%)” value (colon - HCT-116; HCT-116, 3.125 µM) was 99.8%, the “Average of Relative viability of cells (%)” value (colon - HCT-116; HCT-116, 6.25 µM) was 87.4% and the “Average of Relative viability of cells (%)” value (colon - HCT-116; HCT-116, 12.5 µM) was 67.3%. For the same molecule, the “Average of Relative viability of cells (%)” value (colon - HCT-116; HCT-116, 25 µM) was 54.1%, the “Average of Relative viability of cells (%)” value (colon - HCT-116; HCT-116, 50 µM) was 43.7% and the “Average of Relative viability of cells (%)” value (colon - HCT-116; HCT-116, 100 µM) was 28.4%. For the same molecule, the IC50 (colon - HCT-116) was 35 ± 2.2 µM, the “Average of Relative viability of cells (%)” value (- MDAMB-231; MDAMB-231, 1.56 µM) was 100% and the “Average of Relative viability of cells (%)” value (- MDAMB-231; MDAMB-231, 3.125 µM) was 87.1%. The “Average of Relative viability of cells (%)” value (- MDAMB-231; MDAMB-231, 6.25 µM) was 68.5%, the “Average of Relative viability of cells (%)” value (- MDAMB-231; MDAMB-231, 12.5 µM) was 55.2% and the “Average of Relative viability of cells (%)” value (- MDAMB-231; MDAMB-231, 25 µM) was 43.7%. The “Average of Relative viability of cells (%)” value (- MDAMB-231; MDAMB-231, 50 µM) was 32.3%, the “Average of Relative viability of cells (%)” value (- MDAMB-231; MDAMB-231, 100 µM) was 24.8% and the IC50 (pancreatic - MDAMB-231) was 20 ± 1.6 µM. For the same molecule, the “Reduced potency compared to doxorubicin (GI50)” value [2] was “at least 2.5 fold”, the “Reduced potency compared to sorafenib (GI50)” value [2] was no less than 1.5 fold and the IC50 [2] was 29 µM. The “Tub. enzyme inhibition assay %inhibition” value (tubulin; conc 0.01 (unit not given)) was 5.97%, the “Tub. enzyme inhibition assay K. Activity” value (tubulin; conc 0.01 (unit not given)) was 112.84 and the “Tub. enzyme inhibition assay %inhibition” value (tubulin; conc 0.1 (unit not given)) was 16.8%. The “Tub. enzyme inhibition assay K. Activity” value (tubulin; conc 0.1 (unit not given)) was 99.836, the “Tub. enzyme inhibition assay %inhibition” value (tubulin; conc 1 (unit not given)) was 30% and the “Tub. enzyme inhibition assay K. Activity” value (tubulin; conc 1 (unit not given)) was 84.045. The “Tub. enzyme inhibition assay %inhibition” value (tubulin; conc 10 (unit not given)) was 58%, the “Tub. enzyme inhibition assay K. Activity” value (tubulin; conc 10 (unit not given)) was 50.371 and the “Tub. enzyme inhibition assay %inhibition” value (tubulin; conc 100 (unit not given)) was 81.2%. The “Tub. enzyme inhibition assay K. Activity” value (tubulin; conc 100 (unit not given)) was 22.611, the IC50 (tubulin) was 7.92 ± 0.29 µM and the “Tub. (IC50) IC50±SD” value (tubulin; supplement raw data, lab codes) was 4.039 ± 0.15 µg/mL.
In the case of `Cc1nc(SCC(=O)Nc2nccs2)sc1C(=O)/C=C/c1ccc(Cl)cc1` [Compound 13b, (E)-2-((5-(3-(4-chlorophenyl)acryloyl)-4-methylthiazol-2-yl)thio)-N-(thiazol-2-yl)acetamide], the viability at 96 h, 50 µM [1] is reported as 87%, the “Average of Relative viability of cells (%)” value (prostatic - PC-3; PC-3, 1.56 µM) is reported as 100% and the “Average of Relative viability of cells (%)” value (prostatic - PC-3; PC-3, 3.125 µM) is reported as 86.4%. For the same molecule, the “Average of Relative viability of cells (%)” value (prostatic - PC-3; PC-3, 6.25 µM) was 69.2%, the “Average of Relative viability of cells (%)” value (prostatic - PC-3; PC-3, 12.5 µM) was 45.8% and the “Average of Relative viability of cells (%)” value (prostatic - PC-3; PC-3, 25 µM) was 33.7%. The “Average of Relative viability of cells (%)” value (prostatic - PC-3; PC-3, 50 µM) was 25.3%, the “Average of Relative viability of cells (%)” value (prostatic - PC-3; PC-3, 100 µM) was 17.1% and the IC50 (prostatic - PC-3) was 14 ± 1.2 µM. The “Average of Relative viability of cells (%)” value (breast - MCF-7; MCF-7, 1.56 µM) was 97.8%, the “Average of Relative viability of cells (%)” value (breast - MCF-7; MCF-7, 3.125 µM) was 83.5% and the “Average of Relative viability of cells (%)” value (breast - MCF-7; MCF-7, 6.25 µM) was 57.1%. For the same molecule, the “Average of Relative viability of cells (%)” value (breast - MCF-7; MCF-7, 12.5 µM) was 39.3%, the “Average of Relative viability of cells (%)” value (breast - MCF-7; MCF-7, 25 µM) was 22.6% and the “Average of Relative viability of cells (%)” value (breast - MCF-7; MCF-7, 50 µM) was 14.7%. The “Average of Relative viability of cells (%)” value (breast - MCF-7; MCF-7, 100 µM) was 8.2%, the IC50 (breast - MCF-7) was 9 ± 0.7 µM and the “Average of Relative viability of cells (%)” value (colon - HCT-116; HCT-116, 1.56 µM) was 100%. For the same molecule, the “Average of Relative viability of cells (%)” value (colon - HCT-116; HCT-116, 3.125 µM) was 92.7%, the “Average of Relative viability of cells (%)” value (colon - HCT-116; HCT-116, 6.25 µM) was 73.3% and the “Average of Relative viability of cells (%)” value (colon - HCT-116; HCT-116, 12.5 µM) was 53.2%. The “Average of Relative viability of cells (%)” value (colon - HCT-116; HCT-116, 25 µM) was 39.5%, the “Average of Relative viability of cells (%)” value (colon - HCT-116; HCT-116, 50 µM) was 27.4% and the “Average of Relative viability of cells (%)” value (colon - HCT-116; HCT-116, 100 µM) was 14.3%. The IC50 (colon - HCT-116) was 17 ± 1.4 µM, the “Average of Relative viability of cells (%)” value (- MDAMB-231; MDAMB-231, 1.56 µM) was 91.7% and the “Average of Relative viability of cells (%)” value (- MDAMB-231; MDAMB-231, 3.125 µM) was 68.9%. For the same molecule, the “Average of Relative viability of cells (%)” value (- MDAMB-231; MDAMB-231, 6.25 µM) was 60.5%, the “Average of Relative viability of cells (%)” value (- MDAMB-231; MDAMB-231, 12.5 µM) was 34.6% and the “Average of Relative viability of cells (%)” value (- MDAMB-231; MDAMB-231, 25 µM) was 26.3%. The “Average of Relative viability of cells (%)” value (- MDAMB-231; MDAMB-231, 50 µM) was 17.4%, the “Average of Relative viability of cells (%)” value (- MDAMB-231; MDAMB-231, 100 µM) was 9.2% and the IC50 (pancreatic - MDAMB-231) was 8 ± 0.7 µM. For the same molecule, the “Reduced potency compared to doxorubicin (GI50)” value [2] was “at least 2.5 fold”, the “Reduced potency compared to sorafenib (GI50)” value [2] was no less than 1.5 fold and the IC50 [2] was 12 µM. The Tub %inh (tubulin; conc 0.1 (unit not given)) was 15.2%, the “Tub K.Activity” value (tubulin; conc 0.1 (unit not given)) was 101.7 and the Tub %inh (tubulin; conc 1 (unit not given)) was 32.3%. The “Tub K.Activity” value (tubulin; conc 1 (unit not given)) was 81.254, the Tub %inh (tubulin; conc 10 (unit not given)) was 54.2% and the “Tub K.Activity” value (tubulin; conc 10 (unit not given)) was 54.918. The Tub %inh (tubulin; conc 50 (unit not given)) was 76.9%, the “Tub K.Activity” value (tubulin; conc 50 (unit not given)) was 27.751 and the Tub %inh (tubulin; conc 100 (unit not given)) was 92.3%. The “Tub K.Activity” value (tubulin; conc 100 (unit not given)) was 9.196 and the IC50 (tubulin) was 3.73 ± 0.11 µM.
